Assays:
[1] = tested on: HPAC cells; assay: HPAC 3D proliferation assay (CellTiter-Glo); type: cell-based; conditions: Homo sapiens, 168 h, 3D culture, 7 days, read-out: HPAC CTG IC50
Procedure: (§1) SW620 and HPAC 3D proliferation assays.
(§2) Compound potencies were assessed in proliferation assays conducted with SW620 and HPAC cell lines grown in 3D cultures. Cells were seeded into 96- or 384-well ultra-low attachment plates at 3000 or 1000 cells/well, respectively, in culture medium (RPMI-1640, 10% FBS, 2 mM L-glutamine). The plated cells were centrifuged briefly, allowed to rest for 30 minutes under ambient conditions, and cultured overnight at 37° C./5% CO2 to initiate the formation of spheroids. Compound dilutions were prepared across a range of concentrations in DMSO and added to the appropriate wells of the assay plates with a 333-fold dilution into the culture medium. The plates were further incubated for 7 days. The quantity of viable cells was assessed using CellTiter-Glo 3D Cell Viability Assay (Promega). The detection reagent penetrates the spheroids and lyses the cells. The released ATP that was detected with luciferase and a luciferase substrate to generate a luminescent readout. […] The data points were fit to a 4-parameter logistic equation to determine IC50 values.

[2] = tested on: H1975 cells; assay: H1975 CTG proliferation assay; type: cell-based; conditions: Homo sapiens, NCI-H1975, H1975, CTG
[3] = target: recombinant human mutant KRas G12V (SOS1-mediated nucleotide exchange) (Homo sapiens (Human), UniProt P01116, G12V); assay: KRAS biochemical assay, BODIPY-GDP exchange TR-FRET (G12V-GDP HTRF)
recombinant human mutant KRas G12V (SOS1-mediated nucleotide exchange), sequence (P01116-2 other isoform, or with tags, fused parts or gaps G12V): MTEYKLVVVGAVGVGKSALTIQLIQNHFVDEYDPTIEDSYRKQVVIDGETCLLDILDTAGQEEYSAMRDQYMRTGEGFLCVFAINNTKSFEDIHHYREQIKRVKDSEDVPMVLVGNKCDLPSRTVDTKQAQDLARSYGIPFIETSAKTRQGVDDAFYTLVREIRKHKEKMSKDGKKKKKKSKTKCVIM

[4] = target: recombinant human KRAS wild type (SOS1-mediated nucleotide exchange) (Homo sapiens (Human), UniProt P01116); assay: KRAS biochemical assay, BODIPY-GDP exchange TR-FRET (WT-GDP HTRF)
recombinant human KRAS wild type (SOS1-mediated nucleotide exchange), sequence (P01116-2 other isoform, or with tags, fused parts or gaps): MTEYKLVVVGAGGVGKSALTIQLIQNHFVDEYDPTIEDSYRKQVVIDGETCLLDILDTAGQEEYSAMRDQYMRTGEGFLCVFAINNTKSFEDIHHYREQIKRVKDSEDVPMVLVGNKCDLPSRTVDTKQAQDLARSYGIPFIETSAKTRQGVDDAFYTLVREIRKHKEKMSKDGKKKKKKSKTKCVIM
Procedure: [Worded in the source for another variant; this variant is reported under the same test.] KRAS Biochemical Assay—BODIPY-GDP Exchange TR-FRET.
Biochemical compound potencies were assessed by evaluating inhibition of SOS1-mediated nucleotide exchange in KRAS G12D. The SOS1-promoted exchange of fluorescently-labeled GDP (BOPIDY-GDP) was monitored by time-resolved fluorescence resonance energy transfer (TR-FRET). Compounds solubilized in DMSO were dispensed as concentration series into 384-well white assay plates. […] The reaction was initiated with the addition of 5 μL of 3 nM recombinant human SOS1 and 300 nM BODIPY-GDP in assay buffer. After a 60-minute incubation, the fluorescence was measured with excitation at 337 nm and emission at 490 and 520 nm. The TR-FRET ratio was determined as the fluorescence at 520 nm divided by the fluorescence at 490 nm multiplied by 10,000. […] The normalized TR-FRET results were plotted against compound concentration, and the data fit to a 4-parameter Hill equation to determine the IC50 values.

[5] = tested on: SW620 PERK; assay: SW620 PERK assay; type: cell-based; conditions: Homo sapiens, SW-620, SW620, PERK
[6] = tested on: SW620 cells; assay: SW620 3D proliferation assay (CellTiter-Glo); type: cell-based; conditions: Homo sapiens, SW-620, 168 h, SW620, 3D culture, 7 days, read-out: SW620 CTG IC50
Procedure: as §1, §2

Row | Compound | IC50 [1] | IC50 [2] | IC50 [3] | IC50 [4] | IC50 [5] | IC50 [6]
1 | Cc1cc(N)nc(-c2nc3c4c(nc(OC[C@@]56CCCN5C[C@H](F)C6)nc4c2Cl)N([C@H](C)c2cccnc2N)CCO3)c1C(F)(F)F [Example 633, 6-(10-((R)-1-(2-aminopyridin-3-yl)ethyl)-4-chloro-2-(((2R,7aS)-2-fluorotetrahydro-1H-pyrrolizin-7a(5H)-yl)methoxy)-9,10-dihydro-8H-7-oxa-1,3,6,10-tetraazacyclohepta[de]naphthalen-5-yl)-4-methyl-5-(trifluoromethyl)pyridin-2-amine] | 77.8 nM | 48.4 nM | 0.2 nM | 0.416 nM | 23 nM | 19.9 nM
2 | C[C@H](c1cccnc1N)N1CCOc2nc(-c3nc(N)cc4ccccc34)c(F)c3nc(OC[C@@]45CCCN4C[C@H](F)C5)nc1c23 [Example 618, 1-(10-((R)-1-(2-aminopyridin-3-yl)ethyl)-4-fluoro-2-(((2R,7aS)-2-fluorotetrahydro-1H-pyrrolizin-7a(5H)-yl)methoxy)-9,10-dihydro-8H-7-oxa-1,3,6,10-tetraazacyclohepta[de]naphthalen-5-yl)isoquinolin-3-amine] | 1050 nM | 93.2 nM | 0.45 nM | 3.43 nM | 233 nM | 393 nM
3 | Cc1c(F)c(N)nc(-c2nc3c4c(nc(OC[C@@]56CCCN5C[C@H](F)C6)nc4c2F)N([C@H](C)c2cncnc2N)CCO3)c1C(F)(F)F [Example 613, 5-((R)-1-(5-(6-amino-5-fluoro-4-methyl-3-(trifluoromethyl)pyridin-2-yl)-4-fluoro-2-(((2R,7aS)-2-fluorotetrahydro-1H-pyrrolizin-7a(5H)-yl)methoxy)-8,9-dihydro-10H-7-oxa-1,3,6,10-tetraazacyclohepta[de]naphthalen-10-yl)ethyl)pyrimidin-4-amine] | 1520 nM | 160 nM | 0.24 nM | 1.45 nM | 146 nM | 290 nM
4 | C[C@H](c1cccnc1N)N1CCOc2nc(-c3cc(N)ncc3C(F)(F)F)c(F)c3nc(OC[C@@]45CCCN4C[C@H](F)C5)nc1c23 [Example 608, 4-(10-((R)-1-(2-aminopyridin-3-yl)ethyl)-4-fluoro-2-(((2R,7aS)-2-fluorotetrahydro-1H-pyrrolizin-7a(5H)-yl)methoxy)-9,10-dihydro-8H-7-oxa-1,3,6,10-tetraazacyclohepta[de]naphthalen-5-yl)-5-(trifluoromethyl)pyridin-2-amine] | 917 nM | 243 nM | 0.52 nM | 3.38 nM | 45.1 nM | 246 nM
5 | Cc1c(F)c(N)nc(-c2nc3c4c(nc(OC[C@@]56CCCN5C[C@H](F)C6)nc4c2F)N([C@H](C)c2nccnc2N)CCO3)c1C(F)(F)F [Example 630, 3-((R)-1-(5-(6-amino-5-fluoro-4-methyl-3-(trifluoromethyl)pyridin-2-yl)-4-fluoro-2-(((2R,7aS)-2-fluorotetrahydro-1H-pyrrolizin-7a(5H)-yl)methoxy)-8,9-dihydro-10H-7-oxa-1,3,6,10-tetraazacyclohepta[de]naphthalen-10-yl)ethyl)pyrazin-2-amine] | 208 nM | 134 nM | 0.32 nM | 2 nM | 21.2 nM | 28.8 nM
6 | Cc1nc(N)nc(-c2nc3c4c(nc(OC[C@@]56CCCN5C[C@H](F)C6)nc4c2F)N([C@H](C)c2cccnc2N)CCO3)c1C(F)(F)F [Example 628, 4-(10-((R)-1-(2-aminopyridin-3-yl)ethyl)-4-fluoro-2-(((2R,7aS)-2-fluorotetrahydro-1H-pyrrolizin-7a(5H)-yl)methoxy)-9,10-dihydro-8H-7-oxa-1,3,6,10-tetraazacyclohepta[de]naphthalen-5-yl)-6-methyl-5-(trifluoromethyl)pyrimidin-2-amine] | 331 nM | 471 nM | 0.33 nM | 0.826 nM | 14 nM | 14.6 nM
7 | Cc1c(F)c(N)cc(-c2nc3c4c(nc(OC[C@@]56CCCN5C[C@]5(CC5(F)F)C6)nc4c2F)N([C@H](C)c2cccnc2N)CCO3)c1C(F)(F)F [Example 31, 3-((R)-1-(5-(5-amino-4-fluoro-3-methyl-2-(trifluoromethyl)phenyl)-2-(((1R,7a'S)-2,2-difluorodihydro-1′H,3′H-spiro[cyclopropane-1,2′-pyrrolizin]-7a′(5′H)-yl)methoxy)-4-fluoro-8,9-dihydro-10H-7-oxa-1,3,6,10-tetraazacyclohepta[de]naphthalen-10-yl)ethyl)pyridin-2-amine] | 156 nM | 17.9 nM | 0.27 nM | 0.419 nM | 26.8 nM | 16.2 nM
8 | Cc1cc(N)cc(-c2nc3c4c(nc(OC[C@@]56CCCN5C[C@H](F)C6)nc4c2F)N([C@H](C)c2cccnc2N)CCO3)c1C(F)(F)F [Example 3, 3-((R)-1-(5-(5-amino-3-methyl-2-(trifluoromethyl)phenyl)-4-fluoro-2-(((2R,7aS)-2-fluorotetrahydro-1H-pyrrolizin-7a(5H)-yl)methoxy)-8,9-dihydro-10H-7-oxa-1,3,6,10-tetraazacyclohepta[de]naphthalen-10-yl)ethyl)pyridin-2-amine] | 8.79 nM | 9.54 nM | 0.08 nM | 0.104 nM | 0.59 nM | 1.15 nM
9 | C[C@H](c1cccnc1N)N1CCOc2nc(-c3c(C(F)(F)F)ccc(N)c3Cl)c(F)c3nc(OC[C@@]45CCCN4C[C@H](F)C5)nc1c23 (single isomer, unassigned) [Example 622b] | 123 nM | 2610 nM | 2.3 nM | 5.5 nM | 29.6 nM | 22.8 nM
10 | Cc1nc(N)cc(-c2nc3c4c(nc(OC[C@@]56CCN5C[C@]5(CC5(F)F)C6)nc4c2F)N([C@H](C)c2cccnc2N)CCO3)c1C(F)(F)F [Example 605] | 94 nM | 4 nM | 0.14 nM | 0.19 nM | 11.9 nM | 11.3 nM
11 | Cc1nc(N)cc(-c2nc3c4c(nc(OC[C@@H]5CCCN5C)nc4c2F)N([C@H](C)c2cccnc2N)CCO3)c1C(F)(F)F [Example 627, 4-(10-((R)-1-(2-aminopyridin-3-yl)ethyl)-4-fluoro-2-(((S)-1-methylpyrrolidin-2-yl)methoxy)-9,10-dihydro-8H-7-oxa-1,3,6,10-tetraazacyclohepta[de]naphthalen-5-yl)-6-methyl-5-(trifluoromethyl)pyridin-2-amine] | 1360 nM | 854 nM | 0.44 nM | 4.67 nM | 52.6 nM | 193 nM
12 | Cc1c(F)c(N)nc(-c2nc3c4c(nc(OC[C@@]56CCCN5C[C@]5(CC5(F)F)C6)nc4c2F)N([C@H](C)c2nccnc2N)CCO3)c1C(F)(F)F [Example 632] | 83.4 nM | 83.4 nM | 0.089 nM | 0.379 nM | 6.08 nM | 15.5 nM

Reference: patent US20240228512A1, “ACYCLIC OXAZEPINE COMPOUNDS COMPRISING A 6-AZA MOIETY AND USES THEREOF” (Genentech, Inc., priority 2022, published 2024)
